What was measured:
Format in all cases: in vivo, rat
[1] = test system: bleomycin-induced pulmonary fibrosis; test: Lung morphology following bleomycin-induced pulmonary fibrosis (histology, Masson's Trichrome collagen staining); conditions: male Wistar rats, bleomycin 10 U/kg intratracheally; 50 mg/kg daily orally, days 1-21; histology 21 days after instillation; FIG. 1C
Procedure: (A) Effect of a representative compound on lung morphology following bleomycin-induced pulmonary fibrosis. All experiments were performed in accordance with German guidelines for animal welfare, performed by persons certified to work with animals and approved by the responsible authorities. Male Wistar rats were intratracheally injected with Bleomycin sulfate (10 U/kg body weight in 300 μl saline) or saline alone (saline control) using a catheter (0.5 mm internal diameter, 1.0 mm external diameter) through the nasal passage, following exposure to the anaesthetic Isofluorane for 5 minutes. The following day, the rats were orally treated with Example A (compound (134)) or saline suspended in 1 ml 0.1% Natrosol. Control rats were administered 1 ml 0.1% Natrosol (vehicle control). [table] 21 days following bleomycin instillation, the rats were killed with a lethal intraperitoneal injection of Narcoren™ (Pentobarbital Sodium, Rhone Merieux). The lungs were then removed, blotted dry and half was snap frozen in liquid nitrogen and stored at −80° C. The other half was fixed in 4% formalin for subsequent paraffin embedding and histology. The lung tissues fixed in 4% formalin were embedded into paraffin and 5 μm sections were cut using a microtome (Leica SM200R) and placed on poly-L-lysine coated slides. […] Collagen deposition was assessed using Masson's Trichrome staining.

[2] = test system: procollagen I gene expression; test: Expression of fibrotic marker gene procollagen I in lung following bleomycin-induced pulmonary fibrosis (real time PCR); conditions: bleomycin-treated rats, 50 mg/kg daily, day 21, versus bleomycin + vehicle; FIG. 2
Procedure: (§1) All experiments were performed in accordance with German guidelines for animal welfare, performed by persons certified to work with animals and approved by the responsible authorities. Male Wistar rats were intratracheally injected with Bleomycin sulfate (10 U/kg body weight in 300 μl saline) or saline alone (saline control) using a catheter (0.5 mm internal diameter, 1.0 mm external diameter) through the nasal passage, following exposure to the anaesthetic Isofluorane for 5 minutes. The following day, the rats were orally treated with Example A (compound (134)) or saline suspended in 1 ml 0.1% Natrosol. Control rats were administered 1 ml 0.1% Natrosol (vehicle control).
(§2) 21 days following bleomycin instillation, the rats were killed with a lethal intraperitoneal injection of Narcoren™ (Pentobarbital Sodium, Rhone Merieux). The lungs were then removed, blotted dry and half was snap frozen in liquid nitrogen and stored at −80° C. The other half was fixed in 4% formalin for subsequent paraffin embedding and histology.
(§3) (B) Effect of a representative compound on expression of fibrotic marker genes following bleomycin-induced pulmonary fibrosis.
(§4) One part of the frozen lung tissue dedicated to investigation of gene expression was cut into small pieces using a sterile scalpel blade. […] The concentration of each sample was then measured using a spectrophotometer. […]

[3] = test system: fibronectin gene expression; test: Expression of fibrotic marker gene fibronectin in lung following bleomycin-induced pulmonary fibrosis (real time PCR); conditions: bleomycin-treated rats, 50 mg/kg daily, day 21, versus bleomycin + vehicle; FIG. 3
Procedure: as §1, §2, §3, §4

## CN(C)Cc1ccc(N/C(=C2\C(=O)Nc3cc(F)ccc32)c2ccc(CCC(=O)O)cc2)cc1 [Example A, 3-Z-[1-(4-dimethylaminomethylanilino)-1-(4-(2-carboxyethyl)phenyl)methylene]-6-fluoro-2-indolinone]
[1]
  fibroblast infiltration or extracellular matrix deposition in lung: little or no fibroblast infiltration or extracellular matrix deposition has occurred
  lung fibrosis (lung morphology, collagen deposition staining): consistent, nearly complete reversal of lung fibrosis
[2]
  procollagen I gene expression in lung (normalized to 18S): significant (p≦0.0001) inhibition
[3]
  fibronectin gene expression in lung (normalized to 18S): significant (p≦0.0001) inhibition

From patent US20140128409A1, “MEDICAMENTS FOR THE TREATMENT OR PREVENTION OF FIBROTIC DISEASES” (BOEHRINGER INGELHEIM INTERNATIONAL GMBH, priority 2004, published 2014)
